{"source": "ChEMBL document CHEMBL1909046", "about": "“DrugMatrix in vitro pharmacology data”", "key": {"[1]": {"molecular_target": "T1, C-X-C chemokine receptor type 1 (Homo sapiens, UniProt P25024)", "T1 sequence (P25024 whole entry)": "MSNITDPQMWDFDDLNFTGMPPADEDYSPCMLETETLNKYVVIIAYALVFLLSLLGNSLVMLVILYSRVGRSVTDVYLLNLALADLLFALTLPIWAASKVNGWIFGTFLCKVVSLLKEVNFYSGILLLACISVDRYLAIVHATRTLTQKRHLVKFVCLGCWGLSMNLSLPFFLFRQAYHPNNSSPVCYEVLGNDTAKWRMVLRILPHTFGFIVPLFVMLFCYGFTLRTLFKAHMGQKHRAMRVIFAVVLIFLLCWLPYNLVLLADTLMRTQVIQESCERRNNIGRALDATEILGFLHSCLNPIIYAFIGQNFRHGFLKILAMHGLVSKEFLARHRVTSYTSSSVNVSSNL"}, "[2]": {"molecular_target": "Receptor tyrosine-protein kinase erbB-2 (Homo sapiens, UniProt P04626)", "assay": "biochemical", "format": "cell-based, Insect cells"}, "[3]": {"molecular_target": "Beta-1 adrenergic receptor (Homo sapiens, UniProt P08588)", "sequence (P08588 whole entry)": "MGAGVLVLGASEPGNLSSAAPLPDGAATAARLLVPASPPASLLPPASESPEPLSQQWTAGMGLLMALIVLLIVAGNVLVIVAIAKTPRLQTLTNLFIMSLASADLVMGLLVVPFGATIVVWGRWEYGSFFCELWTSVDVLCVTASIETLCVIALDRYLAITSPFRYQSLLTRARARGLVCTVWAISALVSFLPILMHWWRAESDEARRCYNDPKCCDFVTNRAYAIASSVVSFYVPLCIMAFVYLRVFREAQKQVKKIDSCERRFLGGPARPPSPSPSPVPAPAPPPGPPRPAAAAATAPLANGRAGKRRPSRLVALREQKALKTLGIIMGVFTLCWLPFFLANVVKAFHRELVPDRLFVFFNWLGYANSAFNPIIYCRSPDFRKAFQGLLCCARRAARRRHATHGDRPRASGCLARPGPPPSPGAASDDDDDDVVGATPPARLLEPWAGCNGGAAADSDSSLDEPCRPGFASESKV", "assay": "DRUGMATRIX: Adrenergic beta1 radioligand binding (ligand: [125I] Cyanopindolol)", "format": "cell membranes, CHO-K1, Membrane", "details": "cho-k1; Not Active = under 50% inhibition at 10 µM"}, "Nitric oxide synthase 1": {"molecular_target": "Nitric oxide synthase 1 (Rattus norvegicus, UniProt P29476)", "sequence (P29476 whole entry)": "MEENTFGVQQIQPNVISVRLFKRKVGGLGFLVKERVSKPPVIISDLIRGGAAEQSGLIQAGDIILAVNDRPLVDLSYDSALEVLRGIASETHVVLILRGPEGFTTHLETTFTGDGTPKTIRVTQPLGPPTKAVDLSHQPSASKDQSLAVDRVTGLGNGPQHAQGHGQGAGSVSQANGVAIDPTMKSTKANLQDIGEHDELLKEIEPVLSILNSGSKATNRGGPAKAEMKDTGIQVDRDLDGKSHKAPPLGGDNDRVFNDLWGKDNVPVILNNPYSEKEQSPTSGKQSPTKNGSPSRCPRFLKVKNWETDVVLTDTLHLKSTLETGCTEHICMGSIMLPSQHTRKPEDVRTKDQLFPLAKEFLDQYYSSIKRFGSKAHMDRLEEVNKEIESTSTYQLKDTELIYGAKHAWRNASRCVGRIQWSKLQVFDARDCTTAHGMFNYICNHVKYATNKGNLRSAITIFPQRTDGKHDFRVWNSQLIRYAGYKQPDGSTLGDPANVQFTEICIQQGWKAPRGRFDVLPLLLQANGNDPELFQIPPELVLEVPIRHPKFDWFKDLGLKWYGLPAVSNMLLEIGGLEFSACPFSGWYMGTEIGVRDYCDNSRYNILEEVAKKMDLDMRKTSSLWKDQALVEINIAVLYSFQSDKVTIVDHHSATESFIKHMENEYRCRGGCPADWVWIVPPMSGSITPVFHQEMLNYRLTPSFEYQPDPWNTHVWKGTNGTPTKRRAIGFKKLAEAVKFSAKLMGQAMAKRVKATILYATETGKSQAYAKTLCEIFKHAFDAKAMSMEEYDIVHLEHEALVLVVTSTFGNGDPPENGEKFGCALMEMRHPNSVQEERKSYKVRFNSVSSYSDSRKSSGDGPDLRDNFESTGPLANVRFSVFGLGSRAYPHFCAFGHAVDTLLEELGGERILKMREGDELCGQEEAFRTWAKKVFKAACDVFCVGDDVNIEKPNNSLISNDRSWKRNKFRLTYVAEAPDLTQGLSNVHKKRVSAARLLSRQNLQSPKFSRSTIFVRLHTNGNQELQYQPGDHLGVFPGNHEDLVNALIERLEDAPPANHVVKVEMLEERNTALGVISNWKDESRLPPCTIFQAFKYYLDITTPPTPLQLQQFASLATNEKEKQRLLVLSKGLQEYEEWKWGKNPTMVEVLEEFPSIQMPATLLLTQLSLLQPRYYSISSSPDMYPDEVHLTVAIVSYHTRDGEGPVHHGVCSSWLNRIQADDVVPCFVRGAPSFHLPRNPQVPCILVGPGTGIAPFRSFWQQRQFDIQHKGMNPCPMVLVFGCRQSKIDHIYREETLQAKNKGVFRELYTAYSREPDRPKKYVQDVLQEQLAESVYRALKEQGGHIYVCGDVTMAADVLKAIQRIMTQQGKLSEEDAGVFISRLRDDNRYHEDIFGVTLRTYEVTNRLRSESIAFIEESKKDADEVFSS", "format": "tissue-based, Cerebellum"}, "[4]": {"molecular_target": "T2, C-C chemokine receptor type 4 (Homo sapiens, UniProt P51679)", "T2 sequence (P51679 whole entry)": "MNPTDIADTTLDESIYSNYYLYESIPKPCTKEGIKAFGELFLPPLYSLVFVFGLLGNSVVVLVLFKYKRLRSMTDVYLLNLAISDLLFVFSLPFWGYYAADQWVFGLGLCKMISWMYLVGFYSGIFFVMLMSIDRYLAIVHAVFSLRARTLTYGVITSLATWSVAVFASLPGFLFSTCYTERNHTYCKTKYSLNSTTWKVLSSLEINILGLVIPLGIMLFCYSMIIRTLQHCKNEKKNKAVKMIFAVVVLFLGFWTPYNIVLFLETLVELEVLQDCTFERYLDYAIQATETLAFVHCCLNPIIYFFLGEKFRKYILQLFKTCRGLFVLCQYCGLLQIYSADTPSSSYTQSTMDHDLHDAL", "format": "cell membranes, Membrane", "details": "chem-1"}, "[5]": {"assay": "DRUGMATRIX: ATPase, Na+/K+ enzyme inhibition (substrate: ATP)", "format": "tissue-based, Sus scrofa, Heart", "details": "Not Active = under 50% inhibition at 10 µM"}, "[6]": {"assay": "DRUGMATRIX: GABAA, Flunitrazepam, Central radioligand binding (ligand: [3H] Flunitrazepam)", "format": "cell membranes, Rattus norvegicus, Wistar, Brain, Membrane", "details": "Not Active = under 50% inhibition at 10 µM"}, "Estrogen receptor": {"molecular_target": "T3, Estrogen receptor (Homo sapiens, UniProt P03372)", "T3 sequence (P03372 whole entry)": "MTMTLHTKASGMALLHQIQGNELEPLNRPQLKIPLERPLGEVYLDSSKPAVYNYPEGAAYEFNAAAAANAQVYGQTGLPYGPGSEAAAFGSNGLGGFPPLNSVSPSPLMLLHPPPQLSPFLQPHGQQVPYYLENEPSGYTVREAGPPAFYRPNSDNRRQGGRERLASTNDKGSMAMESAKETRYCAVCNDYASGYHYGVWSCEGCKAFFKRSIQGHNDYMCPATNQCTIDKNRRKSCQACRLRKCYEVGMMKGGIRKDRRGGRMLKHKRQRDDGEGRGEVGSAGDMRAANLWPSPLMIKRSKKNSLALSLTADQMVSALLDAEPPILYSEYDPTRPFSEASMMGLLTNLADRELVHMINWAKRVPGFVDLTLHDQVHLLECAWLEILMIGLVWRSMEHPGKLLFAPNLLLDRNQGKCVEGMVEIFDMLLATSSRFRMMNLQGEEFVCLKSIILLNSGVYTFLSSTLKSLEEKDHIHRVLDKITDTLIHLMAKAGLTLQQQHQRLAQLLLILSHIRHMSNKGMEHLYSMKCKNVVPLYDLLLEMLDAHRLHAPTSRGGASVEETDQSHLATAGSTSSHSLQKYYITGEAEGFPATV", "details": "sf9"}}, "note": "pIC50: −log10 of the molar value.", "data": [{"compound": "CS(=O)(=O)c1ccc([C@@H](O)[C@@H](CO)NC(=O)C(Cl)Cl)cc1", "note": "[THIAMPHENICOL]", "values": [{"measurement": "IC50", "setting": "[1]", "value": "Not Active"}, {"measurement": "IC50", "setting": "[2]; insect cells", "value": "Not Active"}, {"measurement": "IC50", "setting": "[3]", "value": "Not Active"}, {"measurement": "IC50", "setting": "Nitric oxide synthase 1", "value": "Not Active"}, {"measurement": "IC50", "setting": "[4]", "value": "Not Active"}, {"measurement": "IC50", "setting": "[5]", "value": "Not Active"}, {"measurement": "Ki", "setting": "[5]", "value": "Not Active"}, {"measurement": "IC50", "setting": "[6]", "value": "Not Active"}, {"measurement": "Ki", "setting": "[6]", "value": "Not Active"}, {"measurement": "IC50", "setting": "Estrogen receptor", "value": "Not Active"}]}, {"compound": "CCN(CC)CCNC(=O)c1cc(S(C)(=O)=O)ccc1OC", "note": "[TIAPRIDE]", "values": [{"measurement": "IC50", "setting": "[1]", "value": "Not Active"}, {"measurement": "IC50", "setting": "[2]; insect cells", "value": "Not Active"}, {"measurement": "IC50", "setting": "[3]", "value": "Not Active"}, {"measurement": "IC50", "setting": "Nitric oxide synthase 1", "value": "Not Active"}, {"measurement": "IC50", "setting": "[4]", "value": "Not Active"}, {"measurement": "IC50", "setting": "[5]", "value": "Not Active"}, {"measurement": "Ki", "setting": "[5]", "value": "Not Active"}, {"measurement": "IC50", "setting": "[6]", "value": "Not Active"}, {"measurement": "Ki", "setting": "[6]", "value": "Not Active"}, {"measurement": "IC50", "setting": "Estrogen receptor", "value": "Not Active"}]}, {"compound": "Clc1ccccc1CN1CCc2sccc2C1", "note": "[TICLOPIDINE]", "values": [{"measurement": "IC50", "setting": "[1]", "value": "Not Active"}, {"measurement": "IC50", "setting": "[2]; insect cells", "value": "Not Active"}, {"measurement": "IC50", "setting": "[3]", "value": "Not Active"}, {"measurement": "IC50", "setting": "Nitric oxide synthase 1", "value": "Not Active"}, {"measurement": "IC50", "setting": "[4]", "value": "Not Active"}, {"measurement": "IC50", "setting": "[5]", "value": "Not Active"}, {"measurement": "Ki", "setting": "[5]", "value": "Not Active"}, {"measurement": "IC50", "setting": "[6]", "value": "Not Active"}, {"measurement": "Ki", "setting": "[6]", "value": "Not Active"}, {"measurement": "IC50", "setting": "Estrogen receptor", "value": "Not Active"}]}, {"compound": "NC1CCN(c2nc3c(cc2F)c(=O)c(C(=O)O)cn3-c2ccc(F)cc2F)C1", "note": "(stereo unspecified) [TOSUFLOXACIN]", "values": [{"measurement": "IC50", "setting": "[1]", "value": "Not Active"}, {"measurement": "IC50", "setting": "[2]; insect cells", "value": "Not Active"}, {"measurement": "IC50", "setting": "[3]", "value": "Not Active"}, {"measurement": "IC50", "setting": "Nitric oxide synthase 1", "value": "Not Active"}, {"measurement": "IC50", "setting": "[4]", "value": "Not Active"}, {"measurement": "IC50", "setting": "[5]", "value": "Not Active"}, {"measurement": "Ki", "setting": "[5]", "value": "Not Active"}, {"measurement": "IC50", "setting": "[6]", "value": "Not Active"}, {"measurement": "Ki", "setting": "[6]", "value": "Not Active"}, {"measurement": "IC50", "setting": "Estrogen receptor", "value": "Not Active"}]}, {"compound": "O=C(Nc1ccc(Br)cc1)c1cc(Br)cc(Br)c1O", "note": "[TRIBROMSALAN]", "values": [{"measurement": "IC50", "setting": "[1]", "value": "Not Active"}, {"measurement": "pIC50", "setting": "[2]; read-out: IC50", "value": 5.22}, {"measurement": "IC50", "setting": "[3]", "value": "Not Active"}, {"measurement": "IC50", "setting": "Nitric oxide synthase 1", "value": "Not Active"}, {"measurement": "IC50", "setting": "[4]", "value": "Not Active"}, {"measurement": "IC50", "setting": "[5]", "value": "Not Active"}, {"measurement": "Ki", "setting": "[5]", "value": "Not Active"}, {"measurement": "IC50", "setting": "[6]", "value": "Not Active"}, {"measurement": "Ki", "setting": "[6]", "value": "Not Active"}, {"measurement": "IC50", "setting": "Estrogen receptor", "value": "Not Active"}]}, {"compound": "CC(c1cc2ccccc2s1)N(O)C(N)=O", "note": "(stereo unspecified) [ZILEUTON]", "values": [{"measurement": "IC50", "setting": "[1]", "value": "Not Active"}, {"measurement": "IC50", "setting": "[2]; insect cells", "value": "Not Active"}, {"measurement": "IC50", "setting": "[3]", "value": "Not Active"}, {"measurement": "IC50", "setting": "Nitric oxide synthase 1", "value": "Not Active"}, {"measurement": "IC50", "setting": "[4]", "value": "Not Active"}, {"measurement": "IC50", "setting": "[5]", "value": "Not Active"}, {"measurement": "Ki", "setting": "[5]", "value": "Not Active"}, {"measurement": "IC50", "setting": "[6]", "value": "Not Active"}, {"measurement": "Ki", "setting": "[6]", "value": "Not Active"}, {"measurement": "IC50", "setting": "Estrogen receptor", "value": "Not Active"}]}, {"compound": "MANGANESE CHLORIDE ANHYDROUS", "values": [{"measurement": "IC50", "setting": "[1]", "value": "Not Active"}, {"measurement": "Ki", "setting": "[1]", "value": "Not Active"}, {"measurement": "IC50", "setting": "[2]; insect cells", "value": "Not Active"}, {"measurement": "Ki", "setting": "[2]; insect cells", "value": "Not Active"}, {"measurement": "IC50", "setting": "[3]", "value": "Not Active"}, {"measurement": "Ki", "setting": "[3]", "value": "Not Active"}, {"measurement": "IC50", "setting": "Nitric oxide synthase 1", "value": "Not Active"}, {"measurement": "Ki", "setting": "Nitric oxide synthase 1", "value": "Not Active"}, {"measurement": "IC50", "setting": "[4]", "value": "Not Active"}, {"measurement": "Ki", "setting": "[4]", "value": "Not Active"}, {"measurement": "IC50", "setting": "[5]", "value": "Not Active"}, {"measurement": "Ki", "setting": "[5]", "value": "Not Active"}, {"measurement": "IC50", "setting": "[6]", "value": "Not Active"}, {"measurement": "Ki", "setting": "[6]", "value": "Not Active"}, {"measurement": "IC50", "setting": "Estrogen receptor", "value": "Not Active"}, {"measurement": "Ki", "setting": "Estrogen receptor", "value": "Not Active"}]}]}
